Molecular target: T1, GBA2 (Homo sapiens, UniProt Q9HCG7)
T1 construct: expressed in transfected cells; host or cells: HEK293T (GBA/GBA2 KO background for the fluorogenic assay; endogenous-GBA background with GBA2 and GBA3 overexpressed for ABPP and intact-cell assays)
T1 sequence (Q9HCG7 1-927): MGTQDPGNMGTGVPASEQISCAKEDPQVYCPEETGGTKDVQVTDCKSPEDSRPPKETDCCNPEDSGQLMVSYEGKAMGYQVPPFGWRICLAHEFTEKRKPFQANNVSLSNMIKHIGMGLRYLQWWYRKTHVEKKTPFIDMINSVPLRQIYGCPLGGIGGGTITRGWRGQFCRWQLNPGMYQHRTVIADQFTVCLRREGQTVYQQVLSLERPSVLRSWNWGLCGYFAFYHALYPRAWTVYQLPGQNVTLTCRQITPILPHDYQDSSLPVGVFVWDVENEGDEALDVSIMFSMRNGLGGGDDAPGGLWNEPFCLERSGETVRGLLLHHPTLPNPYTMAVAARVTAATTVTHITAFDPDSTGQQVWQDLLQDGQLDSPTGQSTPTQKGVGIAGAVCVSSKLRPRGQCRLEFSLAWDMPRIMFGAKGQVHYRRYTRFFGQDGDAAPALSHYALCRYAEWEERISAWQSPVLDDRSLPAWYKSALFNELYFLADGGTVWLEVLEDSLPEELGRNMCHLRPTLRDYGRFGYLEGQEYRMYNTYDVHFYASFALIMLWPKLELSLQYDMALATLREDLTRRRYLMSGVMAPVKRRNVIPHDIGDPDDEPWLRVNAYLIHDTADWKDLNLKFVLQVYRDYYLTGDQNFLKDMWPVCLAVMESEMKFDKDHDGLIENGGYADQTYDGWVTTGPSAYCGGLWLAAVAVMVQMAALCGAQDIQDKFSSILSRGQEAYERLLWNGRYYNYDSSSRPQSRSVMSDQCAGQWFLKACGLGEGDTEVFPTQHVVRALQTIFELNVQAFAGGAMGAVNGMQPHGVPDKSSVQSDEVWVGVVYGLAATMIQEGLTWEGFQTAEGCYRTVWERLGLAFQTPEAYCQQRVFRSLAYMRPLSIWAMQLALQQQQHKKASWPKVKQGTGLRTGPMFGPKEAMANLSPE
Test: ABP labeling of β-D-glucosidases in HEK293T cell lysate, GBA2
Format: biochemical
Settings: 30 min, pH 6.0
Procedure: We next investigated, by ABPP, the GBA/GBA2/GBA3 activity and selectivity of β‐D‐xylo‐cyclophellitol aziridine ABPs 6 and 8 in comparison to those of GBA‐specific ABP 9 [31] or ABP 10.
Figure 4 (A) ABP labeling of β‐D‐glucosidases. A lysate of HEK293T cells expressing human GBA, GBA2 and GBA3 was incubated with indicated ABPs (6, 9 or 10) for 30 min at pH 6.0. Fluorescently labeled proteins were visualized after SDS‐PAGE. (B) Labeling with ABP 6 of wild type or mutant GBA2 (E527G nucleophile mutation and D667G acid/base mutation) expressed in HEK293T cells.
ABP labeling procedure: Glycosidases were labeled with excess fluorescent ABPs at optimum conditions. […] After ABP incubation, proteins were denatured by boiling the samples with 5× Laemmli buffer (50 % (v/v) 1 M Tris‐HCl, pH 6.8, 50 % (v/v) 100 % glycerol, 10 % (w/v) DTT, 10 % (w/v) SDS, 0.01 % (w/v) bromophenol blue) for 5 min at 98 °C, and separated by electrophoresis on 10 % (w/v) SDS‐PAGE gels running continuously at 90 V. Wet slab‐gels were scanned on fluorescence using the Typhoon FLA 9500 (GE Healthcare) at λEX 473 nm and λEM≥510 nm for green fluorescent ABP 8; and at λEX 635 nm and λEM≥665 nm for ABP 6, 9 and 10. ABP‐emitted fluorescence was quantified using ImageQuant software (GE Healthcare, Chicago, IL, USA) and curve‐fitted using Prism 8.0 (GraphPad Software). […]

CN1/C(=C/C=C/C=C/C2=[N+](CCCCCC(=O)NCc3cn(CCCCCCCCN4[C@H]5[C@H](O)[C@@H](O)[C@H](O)C[C@H]54)nn3)c3ccccc3C2(C)C)C(C)(C)c2ccccc21 (stereo partly shown) [ABP 6]
labeling pattern of GBA and GBA2: very similar to that of the broad‐specific β‐D‐glucosidase ABP 10

Reference: PMC8596838, “Xylose‐Configured Cyclophellitols as Selective Inhibitors for Glucocerebrosidase” (Chembiochem, 2021)
